Data published in patent US8163795B2, “Chroman derivatives, medicaments and use in therapy” (Marshall Edwards, Inc., priority 2004, dated 2012).
Like-named read-outs stand apart in the source and are kept apart here.

Assays:
[1] = test system: HPAC (CRL-2119) pancreatic cancer cell line; experiment: Proliferation assay (MTT); assay type: cell-based, human; conditions: Homo sapiens, HPAC, Table 2.2; Pancreatic HPAC; read-out: IC50
4405 melanoma cell line = experiment: Proliferation assay (MTT); assay type: cell-based; conditions: Table 15; melanoma 4405
Experimental: (§1) All cultures were supplemented with 10% FCS (fetal calf serum CSL, Australia), penicillin (100 U/ml), streptomycin ([…]), L-glutamine (2 mM) and sodium bicarbonate (1.2 g/L), and cultured at 37° C. in a humidified atmosphere of 5% CO2. All cell lines were purchased from ATCC (Maryland, USA) except where noted.
(§2) IC50 values were determined for each cell line. Cells were seeded in 96-well plates at an appropriate cell density as determined from growth kinetics analysis and cultured for 5 days in the absence and presence of the test compounds. Cell proliferation was assessed after the addition of 20 μl of 3-4,5 dimethylthiazol-2,5-diphenyl tetrazolium bromide (MTT, 2.5 mg/ml in PBS, Sigma) for 3-4 hrs at 37° C. according to manufacturer's instructions. IC50 values were calculated from semi-log plots of % of control proliferation on the y-axis against log dose on the x-axis.

NCI-H460 (Lung) = experiment: Proliferation assay (MTT); assay type: cell-based; conditions: Homo sapiens, NCI-H460, Table 2.2; NSC Lung NCI-H460
Experimental: as §1, §2

MM96L melanoma cell line = experiment: Proliferation assay (MTT); assay type: cell-based; conditions: Homo sapiens, Table 15
Experimental: as §1, §2

RM melanoma cell line = experiment: Proliferation assay (MTT); assay type: cell-based; conditions: Table 15
Experimental: as §1, §2

HTB-138 (Glioma) = experiment: Proliferation assay (MTT); assay type: cell-based; conditions: Table 2.2; Glioma HTB-138
Experimental: as §1, §2

CCRF-CEM (Leukemic) = experiment: Proliferation assay (MTT); assay type: cell-based; conditions: Homo sapiens, CCRF-CEM, Table 2.2; Leukaemia CCRF-CEM
Experimental: as §1, §2

[2] = test system: SKMe128 melanoma cell line; experiment: Proliferation assay (MTT); assay type: cell-based; conditions: Table 15
Experimental: as §1, §2

[3] = test system: PC3 prostate cancer cell line; experiment: Proliferation assay (MTT); assay type: cell-based; conditions: Table 2.2
Experimental: as §1, §2

HT-29 (Colorectal) = experiment: Proliferation assay (MTT); assay type: cell-based; conditions: Homo sapiens, HT-29, Table 2.2; Colorectal HT-29
Experimental: as §1, §2

IGR-3 (Melanoma) = experiment: Proliferation assay (MTT); assay type: cell-based; conditions: Table 15; melanoma IgR3
Experimental: as §1, §2

[4] = test system: MDA-MB-468 breast cancer cell line; experiment: Proliferation assay (MTT); assay type: cell-based; conditions: Homo sapiens, MDA-MB-468, Table 2.2; Breast MDA-MB-468; read-out: IC50
[5] = test system: cancer cell lines from different pathologies; experiment: HHC as chemosensitiser, statements by cancer indication; assay type: cell-based
From the text: (§3) HHC was screened as chemosensitiser against a panel cell lines representative of a range cancer indications using a panel of cytotoxics commonly used in the treatment of cancer.

CP70 (Ovarian) = experiment: HHC as chemosensitiser; assay type: cell-based
From the text: as §3

MM96L (Melanoma) = experiment: HHC as chemosensitiser; assay type: cell-based
From the text: as §3

PC3 (Prostate) = experiment: HHC as chemosensitiser; assay type: cell-based
From the text: as §3

HPAC (Pancreatic) = experiment: HHC as chemosensitiser; assay type: cell-based
From the text: as §3

MDA-468 (Breast) = experiment: HHC as chemosensitiser; assay type: cell-based; conditions: Breast MDA-468
From the text: as §3

HTB-13.8 (Glioma) = experiment: HHC as chemosensitiser; assay type: cell-based; conditions: Glioma HTB-13.8
From the text: as §3

MM200 melanoma cell line = experiment: Proliferation assay (MTT); assay type: cell-based; conditions: read-out: IC50
rabbit kidney cells (RK) = experiment: Proliferation assay (MTT), normal cell toxicity; assay type: cell-based
Experimental: (§4) The normal cell line NFF (neonatal foreskin fibroblasts) was a sift from Dr. Peter Parsons (Queensland Institute of Medical Research). RK (rabbit kidney) cells were obtained from Miller Whalley (Macquarie University). Both cell lines were cultured in RPMI supplemented with 10% FCS(CSL, Australia), penicillin (100 U/ml), streptomycin ([…]), L-glutamine (2 mM) and sodium bicarbonate (1.2 g/L), and cultured at 37° C. in a humidified atmosphere of 5% CO2.
as §2

cancer cell lines = experiment: Proliferation assays, statements over several cancer cell lines; assay type: cell-based; conditions: all melanoma cell lines tested to date
Experimental: as §2

PGE2 = experiment: Eicosanoid synthesis in LPS-stimulated murine macrophages (RAW 264.7); assay type: cell-based, mouse; conditions: 10 μM; negative values indicate inhibition
Experimental: (§5) The mouse macrophage cell line RAW 264.7 was cultured in DMEM supplemented with foetal calf serum (FCS), 2 mM glutamine and 50 U/ml penicillin/streptomycin. Subconfluent cells were detached from the flask by gentle scraping and 24-well plates seeded at 5×10^5 cells per well and allowed to adhere for 1 hr. Cells were then treated either test compound at a concentration of 10 μM (in 0.025% DMSO) or vehicle alone, and incubated for 1 hr. LPS 50 ng/ml (LPS—Sigma-Aldrich) was then added. After incubation for 16 hrs, culture media was collected and stored at −80° C. for ecosanoid measurements using enzyme immunometric assays (PGE2 and TXB2—Cayman Chemical).
(§6) Table 16: Percentage change in eicosanoid synthesis after incubating test compound at 10 μM compared with incubation with vehicle alone.

TXB2 = experiment: as above; assay type: cell-based, mouse; conditions: 10 μM; negative values indicate inhibition
Experimental: as §5, §6

[6] = test system: Neonatal foreskin fibroblasts (NFF); experiment: Proliferation assay (MTT), normal cell toxicity; assay type: cell-based, Human
Experimental: as §4, §2

[7] = test system: CP70 ovarian cancer cell line; experiment: Proliferation assay (MTT); assay type: cell-based; conditions: Table 2.2 (further studies); Ovarian CP70; read-out: IC50
A2058 melanoma cell line = experiment: Proliferation assay (MTT); assay type: cell-based; conditions: Homo sapiens, A2058, Table 15; melanoma A2058
[8] = HMC and HHC pharmacokinetics, oral, human patients; assay type: in vivo; conditions: plasma
Experimental: Human patients were orally dosed with 200 mg of either HMC or HHC. For each challenged patient, blood was taken over a 6 hour period and the results averaged to characterise the plasma pharmacokinetics.

[9] = human, po, humans dosed orally with 200 mg

Oc1ccc(C2COc3cc(O)ccc3C2c2ccc(O)cc2)cc1 (stereo not drawn) [Compound 11, 3-(4-hydroxyphenyl)-4-(4-hydroxyphenyl)chroman-7-ol]
IC50 [1]: 31600 ± 27000 nM
IC50 (4405 melanoma cell line): 500 nM
IC50 (NCI-H460 (Lung)): 500 ± 100 nM
IC50 (MM96L melanoma cell line): 200 ± 90 nM
IC50 (RM melanoma cell line): 390 ± 280 nM
IC50 (HTB-138 (Glioma)): 520 ± 100 nM
IC50 (CCRF-CEM (Leukemic)): 600 ± 10 nM
IC50 [2]: 360 ± 340 nM
IC50 [3]: 880 ± 400 nM
IC50 (HT-29 (Colorectal)): 2500 ± 1000 nM
IC50 (IGR-3 (Melanoma)): 200 nM
IC50 [4]: 1000 ± 100 nM
synergy HHC:paclitaxel ([5]; breast and colorectal cancer, and melanoma cell lines): Moderate synergy
synergy HHC:cisplatin ([5]; colorectal cancer cell lines): mild synergy
synergy HHC:cisplatin ([5]; ovarian and prostate cancer): Strong synergy
synergy HHC:paclitaxel ([5]; ovarian cancer and glioma cell lines): Equivocal synergy
chemosensitisation to gemcitabine ([5]; ovarian, prostate, breast and pancreatic cancers, and glioma): strongly chemosensitise
synergy HHC:cisplatin ([5]; pancreatic cancer and glioma): synergy was not observed
synergy HHC:paclitaxel ([5]; prostate and pancreatic cancer cell lines): no evidence of synergy
Synergy of HHC with Cisplatin (CP70 (Ovarian)): SSSSS (SSSSS = Synergy)
Synergy of HHC with Gemcitabine (CP70 (Ovarian)): SSSSS (SSSSS = Synergy)
Synergy of HHC with Paclitaxel (CP70 (Ovarian); listed as HHC): n.o. (n.o. = not observed)
chemosensitisation to cisplatin, carboplatin and decarbazine (MM96L (Melanoma); MM96L melanoma cell line): strongly chemosensitise
Synergy of HHC with Carboplatin (MM96L (Melanoma); Melanoma MM96L): SSSSS (SSSSS = Synergy)
Synergy of HHC with Cisplatin (MM96L (Melanoma); Melanoma MM96L): SSSSS (SSSSS = Synergy)
Synergy of HHC with Dacarbazine (MM96L (Melanoma); Melanoma MM96L): SSSSS (SSSSS = Synergy)
Synergy of HHC with Cisplatin (PC3 (Prostate)): SSSSS (SSSSS = Synergy)
Synergy of HHC with Gemcitabine (PC3 (Prostate)): SSSSS (SSSSS = Synergy)
Synergy of HHC with Paclitaxel (PC3 (Prostate)): n.o. (n.o. = not observed)
Synergy of HHC with Cisplatin (HPAC (Pancreatic)): n.o. (n.o. = not observed)
Synergy of HHC with Gemcitabine (HPAC (Pancreatic)): SSSSS (SSSSS = Synergy)
Synergy of HHC with Paclitaxel (HPAC (Pancreatic)): n.o. (n.o. = not observed)
Synergy of HHC with Gemcitabine (MDA-468 (Breast)): SSSSS (SSSSS = Synergy)
Synergy of HHC with Cisplatin (HTB-13.8 (Glioma)): n.o. (n.o. = not observed)
Synergy of HHC with Gemcitabine (HTB-13.8 (Glioma)): SSSSS (SSSSS = Synergy)
Synergy of HHC with Paclitaxel (HTB-13.8 (Glioma); listed as HHC): n.o. (n.o. = not observed)
IC50 (MM200 melanoma cell line; Table 2.2, Melanoma MM200): 600 ± 300 nM
IC50 (MM200 melanoma cell line; Table 15, melanoma MM200, monotherapy): 660 ± 280 nM
IC50 (rabbit kidney cells (RK); Oryctolagus cuniculus, Table 1, Rabbit Kidney, read-out: IC50): > 150000 nM
IC50 (rabbit kidney cells (RK); rabbit kidney cells): non-toxic
IC50 (cancer cell lines): < 1000 nM
Percentage change in PGE2 synthesis vs vehicle alone (PGE2): 27.2%
Percentage change in TXB2 synthesis vs vehicle alone (TXB2): 51.4%
IC50 ([6]; Homo sapiens, Fibroblast, Table 1, Neonatal Foreskin Fibroblasts (Human, NFF), read-out: IC50): 60800 nM
IC50 ([6]; NFF): non-toxic
IC50 [7]: 1100 ± 900 nM
IC50 (A2058 melanoma cell line): 340 nM
Cmax [8, 9]: 341 ng/mL
Tmax [8, 9]: 2.67 h
t1/2 ([8]; humans dosed orally with 200 mg): 3.26 h
half-life ([8]; human patients, 200 mg oral, initial results): 3.26 h
